Source: the supplement of paper PMC10307832

Legend:
Assay in all cases: relative viability (nuclei count vs DMSO), 5 days (fraction); higher = more cells survive
A549 = system: A549
In short: (§1)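 Values are medians from duplicate plates. Each reflects relative viability, defined as the nuclei count of treated wells over that of vehicle wells. Lung cancer cell lines in 1536-well plates were pin-tool dosed one day after seeding with one drug alone or with a fixed anchor-drug dose plus five library-drug doses (not always all listed) in √10 steps, then fixed, stained and imaged at 4× after 5 days.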

Calu-6 = system: Calu-6
In short: as §1

EBC-1 = system: EBC-1
In short: as §1

IA-LM = system: IA-LM
In short: as §1

NCI-H1299 = system: NCI-H1299
In short: as §1

NCI-H1703 = system: NCI-H1703
In short: as §1

NCI-H1563 = system: NCI-H1563
In short: as §1

O=c1[nH]c2ccccc2n1C1CCN(CCCC(c2ccc(F)cc2)c2ccc(F)cc2)CC1 [Pimozide] + CC1(C)CCC(c2ccc(Cl)cc2)=C(CN2CCN(c3ccc(C(=O)NS(=O)(=O)c4ccc(N[C@H](CCN5CCOCC5)CSc5ccccc5)c(S(=O)(=O)C(F)(F)F)c4)cc3)CC2)C1 [Navitoclax] (partner 0.5 µM) was tested, and the relative viability (A549; first compound 0.08 µM) was 1.28, the relative viability (A549; first compound 0.253 µM) was 1.31 and the relative viability (A549; first compound 0.8 µM) was 1.15. It also gave a relative viability (A549; first compound 2.53 µM) of 1.14, a relative viability (A549; first compound 8 µM) of 0.987 and a relative viability (Calu-6; first compound 0.08 µM) of 0.785. For the same compound, the relative viability (Calu-6; first compound 0.253 µM) was 0.805, the relative viability (Calu-6; first compound 0.8 µM) was 0.844 and the relative viability (Calu-6; first compound 2.53 µM) was 0.704. It also gave a relative viability (Calu-6; first compound 8 µM) of 0.774, a relative viability (EBC-1; first compound 0.08 µM) of 0.356 and a relative viability (EBC-1; first compound 0.253 µM) of 0.493. The relative viability (EBC-1; first compound 0.8 µM) was 0.367, the relative viability (EBC-1; first compound 2.53 µM) was 0.309 and the relative viability (EBC-1; first compound 8 µM) was 0.211. It also gave a relative viability (IA-LM; first compound 0.08 µM) of 0.686, a relative viability (IA-LM; first compound 0.253 µM) of 0.723 and a relative viability (IA-LM; first compound 0.8 µM) of 0.923. The relative viability (IA-LM; first compound 2.53 µM) was 0.746, the relative viability (IA-LM; first compound 8 µM) was 0.728 and the relative viability (NCI-H1299; first compound 0.08 µM) was 1.04. The relative viability (NCI-H1299; first compound 0.253 µM) was 0.969, the relative viability (NCI-H1299; first compound 0.8 µM) was 0.99 and the relative viability (NCI-H1299; first compound 2.53 µM) was 1.03. It also gave a relative viability (NCI-H1299; first compound 8 µM) of 1.03, a relative viability (NCI-H1703; first compound 0.08 µM) of 1.05 and a relative viability (NCI-H1703; first compound 0.253 µM) of 0.99. The relative viability (NCI-H1703; first compound 0.8 µM) was 0.982, the relative viability (NCI-H1703; first compound 2.53 µM) was 0.801 and the relative viability (NCI-H1703; first compound 8 µM) was 0.782.
O=C(O)CCCCC(CCSCc1ccccc1)SCc1ccccc1 (stereo not given) [CPI-613] + CC1(C)CCC(c2ccc(Cl)cc2)=C(CN2CCN(c3ccc(C(=O)NS(=O)(=O)c4ccc(N[C@H](CCN5CCOCC5)CSc5ccccc5)c(S(=O)(=O)C(F)(F)F)c4)cc3)CC2)C1 [Navitoclax] (partner 0.5 µM) showed a relative viability (A549; first compound 5 µM) of 1.11, a relative viability (A549; first compound 15.81 µM) of 0.977 and a relative viability (A549; first compound 50 µM) of 1.09. It also gave a relative viability (A549; first compound 158.11 µM) of 0.308, a relative viability (A549; first compound 500 µM) of 0.0559 and a relative viability (Calu-6; first compound 5 µM) of 0.72. For the same compound, the relative viability (Calu-6; first compound 15.81 µM) was 0.744, the relative viability (Calu-6; first compound 50 µM) was 0.595 and the relative viability (Calu-6; first compound 158.11 µM) was 0.107. It also gave a relative viability (Calu-6; first compound 500 µM) of 0.0529, a relative viability (EBC-1; first compound 5 µM) of 0.373 and a relative viability (EBC-1; first compound 15.81 µM) of 0.404. For the same compound, the relative viability (EBC-1; first compound 50 µM) was 0.397, the relative viability (EBC-1; first compound 158.11 µM) was 0.0793 and the relative viability (EBC-1; first compound 500 µM) was 0.0379. It also gave a relative viability (IA-LM; first compound 5 µM) of 0.692, a relative viability (IA-LM; first compound 15.81 µM) of 0.707 and a relative viability (IA-LM; first compound 50 µM) of 0.685. The relative viability (IA-LM; first compound 158.11 µM) was 0.0974, the relative viability (IA-LM; first compound 500 µM) was 0.0132 and the relative viability (NCI-H1299; first compound 5 µM) was 1.05. The relative viability (NCI-H1299; first compound 15.81 µM) was 1.05, the relative viability (NCI-H1299; first compound 50 µM) was 1.06 and the relative viability (NCI-H1299; first compound 158.11 µM) was 1.01. The relative viability (NCI-H1299; first compound 500 µM) was 1.04, the relative viability (NCI-H1703; first compound 5 µM) was 1.01 and the relative viability (NCI-H1703; first compound 15.81 µM) was 0.967. It also gave a relative viability (NCI-H1703; first compound 50 µM) of 0.829, a relative viability (NCI-H1703; first compound 158.11 µM) of 0.144 and a relative viability (NCI-H1703; first compound 500 µM) of 0.0899.
O=C(O)CCCCC(CCSCc1ccccc1)SCc1ccccc1 (stereo not given) [CPI-613] + CC(C)C[C@H](NC(=O)[C@H](Cc1ccccc1)NC(=O)c1cnccn1)B(O)O [Bortezomib] (partner 0.002 µM) was tested, and the relative viability (Calu-6; first compound 5 µM) was 0.945, the relative viability (Calu-6; first compound 15.81 µM) was 0.887 and the relative viability (Calu-6; first compound 50 µM) was 0.879. For the same compound, the relative viability (Calu-6; first compound 158.11 µM) was 0.241, the relative viability (Calu-6; first compound 500 µM) was 0.0719 and the relative viability (EBC-1; first compound 5 µM) was 0.576. For the same compound, the relative viability (EBC-1; first compound 15.81 µM) was 0.51, the relative viability (EBC-1; first compound 50 µM) was 0.481 and the relative viability (EBC-1; first compound 158.11 µM) was 0.0828. The relative viability (EBC-1; first compound 500 µM) was 0.0663, the relative viability (IA-LM; first compound 5 µM) was 0.729 and the relative viability (IA-LM; first compound 15.81 µM) was 0.697. For the same compound, the relative viability (IA-LM; first compound 50 µM) was 0.758, the relative viability (IA-LM; first compound 158.11 µM) was 0.0988 and the relative viability (IA-LM; first compound 500 µM) was 0.0045. For the same compound, the relative viability (NCI-H1299; first compound 5 µM) was 1.01, the relative viability (NCI-H1299; first compound 15.81 µM) was 1.01 and the relative viability (NCI-H1299; first compound 50 µM) was 1.05. It also gave a relative viability (NCI-H1299; first compound 158.11 µM) of 1.06, a relative viability (NCI-H1299; first compound 500 µM) of 1.03 and a relative viability (NCI-H1563; first compound 5 µM) of 0.956. The relative viability (NCI-H1563; first compound 15.81 µM) was 0.859, the relative viability (NCI-H1563; first compound 50 µM) was 0.848 and the relative viability (NCI-H1563; first compound 158.11 µM) was 0.508. It also gave a relative viability (NCI-H1563; first compound 500 µM) of 0.208, a relative viability (NCI-H1703; first compound 5 µM) of 0.29 and a relative viability (NCI-H1703; first compound 15.81 µM) of 0.375. It also gave a relative viability (NCI-H1703; first compound 50 µM) of 0.316, a relative viability (NCI-H1703; first compound 158.11 µM) of 0.174 and a relative viability (NCI-H1703; first compound 500 µM) of 0.102.
